In one series the test system is Huh7 replicon cells. The experiment in a line: Cytotoxicity assay (CellTiter-Glo). To be noted: read-out: CC50 μM; 72 h, CellTiter-Glo. (In general: In ATP-based viability assays light output follows the ATP content of the culture.)
For series [1] the following is noted: mouse, in vivo, po, 50 mg/kg.
Series [2] can be described thus: Mouse PK: 2'-C-methylguanosine triphosphate levels in liver. To be noted: 2'-C-methylguanosine triphosphate in mouse liver, 50 mg/kg PO.
Series [3] relates to HCV replicon (Genotype 1b). The experiment in a line: Luciferase genotype 1b replicon potency assay. To be noted: Hepatitis C virus, GETYPE1B, read-out: IC50 μM, HCV genotype 1b luciferase replicon, Renilla luciferase reporter.
Series [4] in a line: Cytotoxicity assay (CellTiter-Glo). The settings on record: human, Huh7 HCV replicon cells (genotype 1b).

For orientation: CC50 means the concentration that lowers cell viability or growth by half. As usually defined, the IC50 is the concentration needed to halve the response being measured. Consider `COc1nc(N)nc2c1ncn2[C@@H]1O[C@H](CO)[C@@H](O)[C@@]1(C)O` [Example 2, (2R,3R,4R,5R)-2-(2-amino-6-methoxy-9H-purin-9-yl)-5-(hydroxymethyl)-3-methyltetrahydrofuran-3,4-diol], for which the CC50 in the series on Huh7 replicon cells is > 100 µM. For the same molecule, in series [1], the “Multiple Above IC90 at Cmax” value was found to be 25.1. In series [2], this molecule yielded an AUC0-6 of 8748 ng·h/g and an AUC0-24 of 30618 ng·h/g. Further, the IC50 in series [3] turned out to be 3.1 µM.
Consider `COc1nc(N)nc2c1ncn2C1O[C@H](CO)C[C@@]1(C)O` (stereo partly drawn) [Example 94, (3R,5S)-2-(2-amino-6-methoxy-9H-purin-9-yl)-5-(hydroxymethyl)-3-methyl-tetrahydrofuran-3-ol], for which the 50% cytotoxic concentration (CC50) at 72 h in series [4] is > 100 µM. In addition, the concentration for half-maximal inhibition (IC50) in series [3] is > 100 µM.

The record behind these values is patent publication US8759318B2, “Phosphoramidate derivatives of guanosine nucleoside compounds for treatment of viral infections” (Inhibitex, Inc., priority 2009, dated 2014).
